Measurements: publication PMC3265452 (PLoS Neglected Tropical Diseases, 2012)
Read-outs that look alike come from different tables or passages of the source.

Biological target: AaDOP2 (Aedes aegypti, UniProt H6D5H2)
Test: AaDOP2 antagonist screen of the LOPAC1280 library (HEK-CRELuc-Aadop2 cells, luminescence)
Format: cell-based
[1] = 10 µM compound, 300 nM dopamine, 2 hr, hit = compound effect <20

Chain of AaDOP2 (H6D5H2 1-476): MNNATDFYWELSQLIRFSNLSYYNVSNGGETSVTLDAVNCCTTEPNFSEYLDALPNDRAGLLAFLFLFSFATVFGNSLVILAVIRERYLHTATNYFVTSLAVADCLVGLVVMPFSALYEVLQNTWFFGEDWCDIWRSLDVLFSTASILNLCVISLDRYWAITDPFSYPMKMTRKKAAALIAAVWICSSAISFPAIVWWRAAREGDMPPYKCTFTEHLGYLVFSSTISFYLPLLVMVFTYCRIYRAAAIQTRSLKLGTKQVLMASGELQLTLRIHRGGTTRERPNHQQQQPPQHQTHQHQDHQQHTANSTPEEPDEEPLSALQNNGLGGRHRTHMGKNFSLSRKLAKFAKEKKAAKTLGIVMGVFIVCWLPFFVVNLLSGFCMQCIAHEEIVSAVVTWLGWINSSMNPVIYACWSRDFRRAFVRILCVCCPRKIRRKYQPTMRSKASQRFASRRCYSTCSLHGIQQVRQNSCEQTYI

Substance	Compound effect (percent receptor signaling in presence of test compound, relative lux units relative to the SCH23390 control) [1] [%]	Compound effect (percent receptor signaling in presence of test compound, relative lux units relative to the SCH23390 control)
Cortexolone maleate [Compound 1081]	83	–
Dequalinium analog, C-14 linker [Compound 368]	39	–
Histamine, R(-)-alpha-methyl-, dihydrochloride [Compound 622]	–	127
IMID-4F hydrochloride [Compound 639]	109	–
L-Leucinethiol, oxidized dihydrochloride [Compound 709]	81	–
MDL 26,630 trihydrochloride [Compound 828]	93	–
MHPG piperazine [Compound 577]	–	104
NCS-356 [Compound 849]	–	99
NS 521 oxalate [Compound 869]	–	75
OXA-22 iodide [Compound 326]	–	88
Oligomycin A [Compound 906]	–	82
Phenylbenzene-omega-phosphono-alpha-amino acid [Compound 1021]	–	95
Picrotoxin [Compound 924]	–	98
Pyrazinecarboxamide [Compound 966]	79	–
R(-)-2,10,11-Trihydroxy-N-propylnoraporphine hydrobromide [Compound 438]	88	–
R(-)-Apocodeine hydrochloride [Compound 435]	–	98

Substance	Compound effect (percent receptor signaling in presence of test compound, relative lux units relative to the SCH23390 control) [1] [%]	Compound effect (percent receptor signaling in presence of test compound, relative lux units relative to the SCH23390 control)
R(-)-Isoproterenol (+)-bitartrate [Compound 640]	118	–
R(-)-Me5 [Compound 734]	–	93
R(-)-Propylnorapomorphine hydrochloride [Compound 436]	–	99
R-(-)-Deprenyl hydrochloride [Compound 813]	–	93
R-(-)-Desmethyldeprenyl hydrochloride [Compound 407]	–	90
S(-)-Timolol maleate [Compound 1191]	–	88
S-Nitroso-N-acetylpenicillamine [Compound 846]	88	–
SB 224289 hydrochloride [Compound 1142]	–	95
SKF 83565 hydrobromide [Compound 1096]	57	–
SKF 95282 dimaleate [Compound 1237]	–	96
Seglitide [Compound 1079, reference compound]	–	102
TFPI hydrochloride [Compound 1197]	96	–
VER-3323 hemifumarate salt [Compound 706]	–	82
WB 64 [Compound 1263]	–	83
cis-(±)-8-OH-PBZI hydrobromide [Compound 918]	88	–
